# Earlier results as cited in patent publication US20140100537A1 (MEDICURE INTERNATIONAL INC., priority 2009, published 2014).
# Test system: platelet aggregation
# Conditions: typical dosage for tirofiban
structure (smiles),measurement,value
CCCCS(=O)(=O)NC(Cc1ccc(OCCCCC2CCNCC2)cc1)C(=O)O.Cl (stereo not shown) [tirofiban],platelet inhibition provided by typical dosage,> 90%
